Source: patent US9585893B2, “Flumazenil complexes, compositions comprising same and uses thereof” (COERULEUS LTD., priority 2011, dated 2017)
Where a name gives a salt, the structure may show the parent alone.

Experiments:
[1] = adult doses; cited from earlier work
[2] = assay type: physicochemical
Experimental: Flumazenil chloride salt consisting of flumazenil and hydrochloride acid was prepared (FIG. 1). […] The concentration of flumazenil in that composition is higher by […] than the concentration of flumazenil in the commercial product Romazicon® (Romazicon® contains 0.01% flumazenil).

[3] = tested on: hepatic encephalopathy in patients with cirrhosis; settings: intravenous infusion of 1 mg flumazenil in 20 ml saline over 3-5 minutes; cited from earlier work

SMILES: NC(=O)c1cccnc1 [nicotinamide, 3-pyridinecarboxamide]
- dose considered to have toxic potential [1]: > 3 gm/day

SMILES: CCOC(=O)c1ncn2c1CN(C)C(=O)c1cc(F)ccc1-2 [Flumazenil chloride salt]
- concentration of flumazenil in the composition enabled by increased solubility [2]: 0.66%

SMILES: CCOC(=O)c1ncn2c1CN(C)C(=O)c1cc(F)ccc1-2 [flumazenil, ethyl 8-fluoro-5,6-dihydro-5-methyl-6-oxo-4H-imidazo[1,5-a][1,4]benzodiazepine-3-carboxylate]
- effect on recovery or survival [3]: no significant effect
- effect on short-term improvement of hepatic encephalopathy [3]: significant beneficial effect
